{"source": "patent US20050245455A1", "about": "“Gonadotropin releasing hormone antagonists in gel-forming concentrations” (priority 2001, published 2005)", "conditions": "dog, in vivo, sc", "note": "Where a SMILES comes first, the peptide text is derived from it. [ ]: non-standard residue; d: D form. The star is where a group is joined. dPhe(4-NHCONH2) = NC(=O)Nc1ccc(C[C@@H](N)C(=O)O)cc1; Dihydroorotyl(S) = O=C1C[C@@H](C(=O)*)NC(=O)N1; dPhe(4-Cl) = N[C@H](Cc1ccc(Cl)cc1)C(=O)O; Phe(4-NH2) = Nc1ccc(C[C@H](N)C(=O)O)cc1; d2Nal = N[C@H](Cc1ccc2ccccc2c1)C(=O)O; Lys(iPr) = CC(C)NCCCC[C@H](N)C(=O)O; d3Pal = N[C@H](Cc1cccnc1)C(=O)O"}
{"smiles": "CC(=O)N[C@H](Cc1ccc2ccccc2c1)C(=O)N[C@H](Cc1ccc(Cl)cc1)C(=O)N[C@H](Cc1cccnc1)C(=O)N[C@@H](CO)C(=O)N[C@@H](Cc1ccc(NC(=O)[C@@H]2CC(=O)NC(=O)N2)cc1)C(=O)N[C@H](Cc1ccc(NC(N)=O)cc1)C(=O)N[C@@H](CC(C)C)C(=O)N[C@@H](CCCCNC(C)C)C(=O)N1CCC[C@H]1C(=O)N[C@H](C)C(N)=O", "note": "[Peptide 1, Ac-DNal-DCpa-DPal-Ser-Aph(L-Hor)-DAph(CONH2)-Leu-Lys(iPr)-Pro-DAla-NH2] (Ac-[d2Nal][dPhe(4-Cl)][d3Pal]S[Phe(4-NH2)](Dihydroorotyl(S))[dPhe(4-NHCONH2)]L[Lys(iPr)]P[dA]-NH2)", "values": [{"measurement": "Fraction of the total dose absorbed, subcutaneous compared to intramuscular administration", "result": "almost twice as high"}]}
